Laboratory results taken from publication PMC10480042 (ACS applied materials & interfaces, 2023).
No end group written: not given here.

Experiments:
Aβ42 [1] = biological target: T1, Aβ42 (Homo sapiens, UniProt P05067); assay: CD spectroscopy; type: biochemical; conditions: co-incubation with Spike1058, dose-dependent, 48 h, 37 °C
Aβ42 [2] = biological target: T1, Aβ42; type: biochemical
Aβ42 [3] = biological target: T1, Aβ42; assay: SEC-HPLC-UV of Aβ42 and Spike1058 co-aggregation; type: biochemical; conditions: molar ratio 1:2, 4 h, 37 °C, UV 220 nm, PBS pH 5.6
Aβ42 [4] = biological target: T1, Aβ42; assay: biochemical; type: binding
zebrafish embryos [5] = conditions: in vivo
zebrafish embryos [6] = conditions: in vivo; remark: listed apart in the source

T1 sequence (P05067 672-713): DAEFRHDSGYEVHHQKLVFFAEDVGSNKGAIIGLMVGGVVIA

HGVVFLHVTYV [Spike1058]
increase of β-sheet content of Aβ by co-incubation (CD) (Aβ42 [1]): 16-35%
increase of Aβ's β-sheet content by co-incubation (Aβ42 [2]): 7-33%
decrease of amount of Spike1058 in mixed Aβ-Spike1058 sample (Aβ42 [3]): 39.54%
Kd (Aβ42 [4]): 0.0826 µM
cell mortality (SH-SY5Y cells): elevated in a dose-dependent manner
cell mortality vs Aβ control (SH-SY5Y cells): less deleterious than Aβ control
number of viable SH-SY5Y cells at increasing Spike:Aβ molar ratios (SH-SY5Y cells): gradual decline in number
impact on cell viability, less than Aβ control (SH-SY5Y cells; 25 µM): 11%
viable SH-SY5Y cells compared with Aβ control group (SH-SY5Y cells; 24 h): 22%
hatching interference and mortality compared to control group (zebrafish embryos [5]): pronounced hatching interference and mortality
hatching rate in comparison to Aβ or Spike1058 alone (zebrafish embryos [5]): significantly decreased
influence on hatching and mortality rate relative to Aβ (zebrafish embryos [5]): more substantial influence than Aβ
survival rate in comparison to Aβ or Spike1058 alone (zebrafish embryos [5]): significantly decreased
generation of biotic ROS, surpassing levels with Aβ or Spike1058 alone (zebrafish embryos [6]): significant increase
